The text below walks through data of the supplement of paper PMC8967900.

Each structure is given as a SMILES string.
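Further: ALL cell lines in 384-well plates, five doses spanning 10,000-fold, each plate scaled between vehicle and 100 µmol/L benzalkonium chloride controls, sDSS an adapted area-under-curve metric.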

One test deals with DND-41. Nature of the test: selective drug sensitivity score (sDSS, relative to normal bone marrow) (sDSS (score)); higher = more potent and effective on the cell line relative to normal bone marrow cells. The conditions noted are these: 72 h.
In the case of `CC#CC(=O)N1CC[C@@H](n2c(=O)n(-c3ccc(Oc4ccccc4)cc3)c3c(N)ncnc32)C1` [Tirabrutinib] (top concentration 1000 nM), the “selective drug sensitivity score” value was found to be 2.3.

As for `CC(C)C[C@@H](C(=O)N[C@H](C(=O)OC1CCCC1)c1ccccc1)[C@H](O)C(=O)NO` [Tosedostat] (top concentration 10000 nM), the “selective drug sensitivity score” value is 5.16.

Consider `CS(=O)(=O)c1ccc(-c2cnc(N)c(C(=O)Nc3ccccc3)n2)cc1` [VE-821] (top concentration 10000 nM), for which the “selective drug sensitivity score” value is -0.66.

Take `CNC(=O)c1ccccc1Nc1cc(Nc2ccc(N3CCOCC3)cc2OC)ncc1C(F)(F)F` [VS-4718] (top concentration 10000 nM): the “selective drug sensitivity score” value was -0.9.

On to `Cc1cccc(-c2[nH]c(CNc3ccccc3F)nc2-c2ccc3ncnn3c2)n1` [Vactosertib (TEW-7197)] (top concentration 2500 nM), for which the “selective drug sensitivity score” value came to 3.

On to `O=C(/C=C\n1cnc(-c2cc(C(F)(F)F)cc(C(F)(F)F)c2)n1)NNc1ccccn1` [Verdinexor] (top concentration 1000 nM), for which the “selective drug sensitivity score” value amounted to 11.6.

On to `CC[C@@H]1C(=O)N(C)c2cnc(Nc3ccc(C(=O)N[C@H]4CC[C@H](N5CCN(CC6CC6)CC5)CC4)cc3OC)nc2N1C(C)C` [Volasertib] (top concentration 1000 nM), for which the “selective drug sensitivity score” value worked out at 11.2.

Take `O=C(CCCCCCC(=O)Nc1ccccc1)NO` [Vorinostat] (top concentration 10000 nM): the “selective drug sensitivity score” value amounted to 2.2.

Another test relates to HAL-01. The test is described as above. As to conditions: 72 h.
Turning to `CC#CC(=O)N1CC[C@@H](n2c(=O)n(-c3ccc(Oc4ccccc4)cc3)c3c(N)ncnc32)C1` [Tirabrutinib] (top concentration 1000 nM), the “selective drug sensitivity score” value was 6.5.

Regarding `CC(C)C[C@@H](C(=O)N[C@H](C(=O)OC1CCCC1)c1ccccc1)[C@H](O)C(=O)NO` [Tosedostat] (top concentration 10000 nM), the “selective drug sensitivity score” value is -3.84.

Turning to `CS(=O)(=O)c1ccc(-c2cnc(N)c(C(=O)Nc3ccccc3)n2)cc1` [VE-821] (top concentration 10000 nM), the “selective drug sensitivity score” value was found to be 4.54.

Turning to `CNC(=O)c1ccccc1Nc1cc(Nc2ccc(N3CCOCC3)cc2OC)ncc1C(F)(F)F` [VS-4718] (top concentration 10000 nM), the “selective drug sensitivity score” value was 8.7.

With `Cc1cccc(-c2[nH]c(CNc3ccccc3F)nc2-c2ccc3ncnn3c2)n1` [Vactosertib (TEW-7197)] (top concentration 2500 nM), the “selective drug sensitivity score” value was determined as 0.

Turning to `O=C(/C=C\n1cnc(-c2cc(C(F)(F)F)cc(C(F)(F)F)c2)n1)NNc1ccccn1` [Verdinexor] (top concentration 1000 nM), the “selective drug sensitivity score” value amounted to 3.94.

In the case of `CC[C@@H]1C(=O)N(C)c2cnc(Nc3ccc(C(=O)N[C@H]4CC[C@H](N5CCN(CC6CC6)CC5)CC4)cc3OC)nc2N1C(C)C` [Volasertib] (top concentration 1000 nM), the “selective drug sensitivity score” value was found to be 5.8.

Turning to `O=C(CCCCCCC(=O)Nc1ccccc1)NO` [Vorinostat] (top concentration 10000 nM), the “selective drug sensitivity score” value came out at 0.8.

The subject of the next test is KASUMI-10. The test is described as above. As to conditions: 72 h.
Regarding `CC#CC(=O)N1CC[C@@H](n2c(=O)n(-c3ccc(Oc4ccccc4)cc3)c3c(N)ncnc32)C1` [Tirabrutinib] (top concentration 1000 nM), the “selective drug sensitivity score” value amounted to 0.

`CC(C)C[C@@H](C(=O)N[C@H](C(=O)OC1CCCC1)c1ccccc1)[C@H](O)C(=O)NO` [Tosedostat] (top concentration 10000 nM): the “selective drug sensitivity score” value was determined as 7.06.

On to `CS(=O)(=O)c1ccc(-c2cnc(N)c(C(=O)Nc3ccccc3)n2)cc1` [VE-821] (top concentration 10000 nM), for which the “selective drug sensitivity score” value came out at 2.54.

Take `CNC(=O)c1ccccc1Nc1cc(Nc2ccc(N3CCOCC3)cc2OC)ncc1C(F)(F)F` [VS-4718] (top concentration 10000 nM): the “selective drug sensitivity score” value came to 11.2.

On to `Cc1cccc(-c2[nH]c(CNc3ccccc3F)nc2-c2ccc3ncnn3c2)n1` [Vactosertib (TEW-7197)] (top concentration 2500 nM), for which the “selective drug sensitivity score” value is -0.5.

Turning to `O=C(/C=C\n1cnc(-c2cc(C(F)(F)F)cc(C(F)(F)F)c2)n1)NNc1ccccn1` [Verdinexor] (top concentration 1000 nM), the “selective drug sensitivity score” value stood at 1.54.

Regarding `CC[C@@H]1C(=O)N(C)c2cnc(Nc3ccc(C(=O)N[C@H]4CC[C@H](N5CCN(CC6CC6)CC5)CC4)cc3OC)nc2N1C(C)C` [Volasertib] (top concentration 1000 nM), the “selective drug sensitivity score” value amounted to 8.

As for `O=C(CCCCCCC(=O)Nc1ccccc1)NO` [Vorinostat] (top concentration 10000 nM), the “selective drug sensitivity score” value worked out at 4.6.

The test system of a further test is KASUMI-2. Described as above. As to conditions: 72 h.
`CC#CC(=O)N1CC[C@@H](n2c(=O)n(-c3ccc(Oc4ccccc4)cc3)c3c(N)ncnc32)C1` [Tirabrutinib] (top concentration 1000 nM): the “selective drug sensitivity score” value came out at 2.9.

Consider `CC(C)C[C@@H](C(=O)N[C@H](C(=O)OC1CCCC1)c1ccccc1)[C@H](O)C(=O)NO` [Tosedostat] (top concentration 10000 nM), for which the “selective drug sensitivity score” value is -5.44.

In the case of `CS(=O)(=O)c1ccc(-c2cnc(N)c(C(=O)Nc3ccccc3)n2)cc1` [VE-821] (top concentration 10000 nM), the “selective drug sensitivity score” value is -0.66.

Turning to `CNC(=O)c1ccccc1Nc1cc(Nc2ccc(N3CCOCC3)cc2OC)ncc1C(F)(F)F` [VS-4718] (top concentration 10000 nM), the “selective drug sensitivity score” value was -5.

As for `Cc1cccc(-c2[nH]c(CNc3ccccc3F)nc2-c2ccc3ncnn3c2)n1` [Vactosertib (TEW-7197)] (top concentration 2500 nM), the “selective drug sensitivity score” value is -0.5.

Consider `O=C(/C=C\n1cnc(-c2cc(C(F)(F)F)cc(C(F)(F)F)c2)n1)NNc1ccccn1` [Verdinexor] (top concentration 1000 nM), for which the “selective drug sensitivity score” value was determined as 12.9.

`CC[C@@H]1C(=O)N(C)c2cnc(Nc3ccc(C(=O)N[C@H]4CC[C@H](N5CCN(CC6CC6)CC5)CC4)cc3OC)nc2N1C(C)C` [Volasertib] (top concentration 1000 nM): the “selective drug sensitivity score” value worked out at 5.7.

Turning to `O=C(CCCCCCC(=O)Nc1ccccc1)NO` [Vorinostat] (top concentration 10000 nM), the “selective drug sensitivity score” value turned out to be 17.6.

In a further test the test system is KASUMI-9. Described as above. As to conditions: 72 h.
In the case of `CC#CC(=O)N1CC[C@@H](n2c(=O)n(-c3ccc(Oc4ccccc4)cc3)c3c(N)ncnc32)C1` [Tirabrutinib] (top concentration 1000 nM), the “selective drug sensitivity score” value turned out to be 0.

In the case of `CC(C)C[C@@H](C(=O)N[C@H](C(=O)OC1CCCC1)c1ccccc1)[C@H](O)C(=O)NO` [Tosedostat] (top concentration 10000 nM), the “selective drug sensitivity score” value is 2.56.

On to `CS(=O)(=O)c1ccc(-c2cnc(N)c(C(=O)Nc3ccccc3)n2)cc1` [VE-821] (top concentration 10000 nM), for which the “selective drug sensitivity score” value was 0.84.

Regarding `CNC(=O)c1ccccc1Nc1cc(Nc2ccc(N3CCOCC3)cc2OC)ncc1C(F)(F)F` [VS-4718] (top concentration 10000 nM), the “selective drug sensitivity score” value is 2.1.

Regarding `Cc1cccc(-c2[nH]c(CNc3ccccc3F)nc2-c2ccc3ncnn3c2)n1` [Vactosertib (TEW-7197)] (top concentration 2500 nM), the “selective drug sensitivity score” value is 1.4.

As to `O=C(/C=C\n1cnc(-c2cc(C(F)(F)F)cc(C(F)(F)F)c2)n1)NNc1ccccn1` [Verdinexor] (top concentration 1000 nM), the “selective drug sensitivity score” value is 3.74.

On to `CC[C@@H]1C(=O)N(C)c2cnc(Nc3ccc(C(=O)N[C@H]4CC[C@H](N5CCN(CC6CC6)CC5)CC4)cc3OC)nc2N1C(C)C` [Volasertib] (top concentration 1000 nM), for which the “selective drug sensitivity score” value was determined as 18.5.

Turning to `O=C(CCCCCCC(=O)Nc1ccccc1)NO` [Vorinostat] (top concentration 10000 nM), the “selective drug sensitivity score” value turned out to be 11.6.
